# Measurements published in article PMC6999911, “New 2-Ethylthio-4-methylaminoquinazoline derivatives inhibiting two subunits of cytochrome bc1 in Mycobacterium tuberculosis” (PLoS Pathogens, 2020).
# Assays:
# Format in all cases: cell-based, Mycobacterium tuberculosis
# [1] = system: QuinR mutant strains
# [2] = system: H37Rv-Rv1777(R145S)
# [3] = system: QuinR-M3 (QcrB Gly175Ser)
# [4] = system: QuinR-M2 (QcrB Trp312Gly)
# [5] = system: QuinR-M1 (QcrA Leu356Val)
# [6] = system: M. tb H37Rv ΔcydKO A317V
# [7] = system: complemented mutant (ΔcydAB)
Structure (SMILES),ATP depletion in QuinR mutants [1],"fold change in the MIC, H37Rv-Rv1777(R145S) [2] [fold]",fold-change MIC compared to H37Rv (QuinR-M3) [3] [fold-change],fold-change MIC compared to H37Rv (QuinR-M2) [4] [fold-change],fold-change MIC compared to H37Rv (QuinR-M1) [5] [fold-change],basal respiration after compound addition [6],static or cidal activity by CFU enumeration [7]
COc1nc2ccc(Br)cc2cc1[C@@H](c1ccccc1)[C@@](O)(CCN(C)C)c1cccc2ccccc12 [BDQ],Significant ATP depletion,,,,,,
CCSc1nc(NC)c2ccccc2n1 [Compound 11626141],,≤ 3,92,1489,59,,
CCNc1nc(SCC)nc2ccccc12 [Compound 11626142],,≤ 3,34,1111,39,,
CCSc1nc(NC)c2cccc(F)c2n1 [Compound 11626252],low-level ATP depletion,≤ 3,61,1470,25,did not cause a deviation in basal respiration,bacteriostatic effect is restored
CCSc1nc(NC)c2ccc(F)c(F)c2n1 [Compound 11726148],,,142,224,100,,
"CCc1nc2ccc(Cl)cn2c1C(=O)NCc1ccc(N2CCC(c3ccc(OC(F)(F)F)cc3)CC2)cc1 [Compound Q203, Telacebec, reference compound]",Significant ATP depletion,,191,742,669,,
"Cc1c(OCC(F)(F)F)ccnc1CSc1nc2ccccc2[nH]1 [LPZs, lansoprazole sulfide, reference compound]",,,1,> 71,> 71,,
